Read-outs that look alike come from different tables or passages of the source.

The text below walks through data of US11596639B2, “Substituted indole Mcl-1 inhibitors” (Vanderbilt University, priority 2016, dated 2023).

The subject of assay [1] is H929 human cancer cell lines. Put plainly: Cellular viability / proliferation (Cell TiterGlo, 72 h). In kind it is cell-based. A digest of the protocol: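 1,000 cells/well, 10% FBS medium; compound added at 24 h, 2-fold dilutions from 50 μM top, DMSO <1% final. 72 h exposure, CellTiterGlo 30 min RT dark, luminescence read. IC50 by 4-parameter fit.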
Background: In ATP-based viability assays light output follows the ATP content of the culture.

The target of assay [2] is Mcl-1 (Homo sapiens (Human), UniProt Q07820). The experiment in a line: Fluorescence polarization anisotropy (FPA) competition assay, FITC-Bak or FITC-Bim BH3 peptide. The format is binding. The following applies: read-out: Ki for Inhibition of Mcl-1 by FPA assay. In general terms: Fluorescence polarisation rises when a labelled molecule tumbles more slowly, as on binding a larger partner.

[3] abbreviates: Homo sapiens, NCI-H929, 72 h, read-out: GI50 on cellular proliferation of H929 human cancer cell lines, H929 cells, 72 h, Cell TiterGlo, 10% FBS.

Chain of Mcl-1 (Q07820 172-327): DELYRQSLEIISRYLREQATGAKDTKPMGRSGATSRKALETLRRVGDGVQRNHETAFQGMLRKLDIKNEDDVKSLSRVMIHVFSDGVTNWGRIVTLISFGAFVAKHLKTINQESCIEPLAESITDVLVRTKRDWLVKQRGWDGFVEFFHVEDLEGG

As usually defined, the Ki is the dissociation constant of the complex between target and ligand, obtained from inhibition or displacement. Take `Cc1cc(OCCCc2c3n(c4c(-c5c(C)nn(C)c5C)c(Cl)ccc24)CCCN(c2cn(CCN4CCOCC4)c4cc(C(=O)O)ccc24)C3=O)cc(C)c1Cl` [Example 89, 3-(8-Chloro-11-(3-(4-chloro-3,5-dimethylphenoxy)propyl)-1-oxo-7-(1,3,5-trimethyl-1H-pyrazol-4-yl)-4,5-dihydro-1H-[1,4]diazepino[1,2-a]indol-2(3H)-yl)-1-(2-morpholinoethyl)-1H-indole-6-carboxylic acid]: the GI50 in assay [1] (setting [3]) was determined as 1300 nM. Further, the Ki in assay [2] is under 1 nM.
As to `Cc1cc(OCCCc2c3n(c4c(-c5c(C)nn(C)c5C)c(Cl)ccc24)CCCN(c2cc(C(=O)O)c4cnn(C(C)C)c4c2)C3=O)cc(C)c1Cl` [Example 92, 6-[8-Chloro-11-[3-(4-chloro-3,5-dimethyl-phenoxy)propyl]-1-oxo-7-(1,3,5-trimethylpyrazol-4-yl)-4,5-dihydro-3H-[1,4]diazepino[1,2-a]indol-2-yl]-1-isopropyl-indazole-4-carboxylic acid], the GI50 in assay [1] (setting [3]) came out at 900 nM. For the same compound, the Ki in assay [2] is under 1 nM.
The like results for `Cc1cc(OCCCc2c3n(c4c(-c5c(C)n[nH]c5C)c(Cl)ccc24)[C@H](C)CN(c2cc(C(=O)O)c4cnn(C)c4c2)C3=O)cc(C)c1Cl` [Example 93, (R)-6-(7-chloro-10-(3-(4-chloro-3,5-dimethylphenoxy)propyl)-6-(3,5-dimethyl-1H-pyrazol-4-yl)-4-methyl-1-oxo-3,4-dihydropyrazino[1,2-a]indol-2(1H)-yl)-1-methyl-1H-indazole-4-carboxylic acid] were, in that order, 7500 nM and under 1 nM.
On the same counts, the results for `Cc1cc(OCCCc2c3n(c4c(-c5c(C)nn(C)c5C)c(Cl)ccc24)[C@H](C)CN(c2cc(C(=O)O)c4ccn(CCN5CCOCC5)c4c2)C3=O)cc(C)c1Cl` [Example 94, (R)-6-(7-chloro-10-(3-(4-chloro-3,5-dimethylphenoxy)propyl)-4-methyl-1-oxo-6-(1,3,5-trimethyl-1H-pyrazol-4-yl)-3,4-dihydropyrazino[1,2-a]indol-2(1H)-yl)-1-(2-morpholinoethyl)-1H-indole-4-carboxylic acid] are 1500 nM and under 1 nM.
As to `Cc1cc(OCCCc2c3n(c4c(-c5c(C)n[nH]c5C)c(Cl)ccc24)CCCN(c2cc(C(=O)O)c4cnn(C)c4c2)C3=O)cc(C)c1Cl` [Example 95, 6-(8-Chloro-1-(3-(4-chloro-3,5-dimethylphenoxy)propyl)-7-(3,5-dimethyl-1H-pyrazol-4-yl)-1-oxo-4,5-dihydro-1H-[1,4]diazepino[1,2-a]indol-2(3H)-yl)-1-methyl-1H-indazole-4-carboxylic acid], in assay [1] (H929 cells, 72 h, Cell TiterGlo, 10% FBS, read-out: GI50 on cellular proliferation of H929 human cancer cell lines), the GI50 turned out to be 10000 nM. The inhibitory constant (Ki) in assay [2] is under 1 nM.
As to `Cc1cc(OCCCc2c3n(c4c(-c5c(C)nn(C)c5C)c(Cl)ccc24)[C@H](C)CN(c2cc(C(=O)O)cc4c2ccn4CCN2CCOCC2)C3=O)cc(C)c1Cl` [Example 96, (R)-4-(7-chloro-10-(3-(4-chloro-3,5-dimethylphenoxy)propyl)-4-methyl-1-oxo-6-(1,3,5-trimethyl-1H-pyrazol-4-yl)-3,4-dihydropyrazino[1,2-a]indol-2(1H)-yl)-1-(2-morpholinoethyl)-1H-indole-6-carboxylic acid], the GI50 in assay [1] (setting [3]) was 4700 nM. The inhibition constant (Ki) in assay [2] stood at 2.9 nM.
On the same counts, the results for `Cc1cc(OCCCc2c3n(c4c(-c5c(C)nn(C)c5C)c(Cl)ccc24)[C@H](C)CN(c2cc(C(=O)O)c4c(cnn4C)c2)C3=O)cc(C)c1Cl` [Example 98, (R)-5-(7-chloro-10-(3-(4-chloro-3,5-dimethylphenoxy)propyl)-4-methyl-1-oxo-6-(1,3,5-trimethyl-1H-pyrazol-4-yl)-3,4-dihydropyrazino[1,2-a]indol-2(1H)-yl)-1-methyl-1H-indazole-7-carboxylic acid] are 6600 nM and under 1 nM.
